Experimental data published in ChEMBL document CHEMBL1201862, “PubChem BioAssay data set” (2004).
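Interpolation was linear, between the two tested concentrations surrounding the appropriate level; five concentrations were tested over 48 hours in 96-well plates. GI50 marks 50% less growth.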 Active and inactive are the calls of the source. Cut-off read from the data, not from the text of the source: active = GI50 up to about 1.1 µM and inactive = higher.

Columns and labels:
Assay in all cases: growth of human tumour cells (NCI), 48 h
SF-268 = tested on: SF-268
UACC-257 = tested on: UACC-257
MDA-MB-231 = tested on: MDA-MB-231
IGROV-1 = tested on: IGROV-1
NCI-H460 = tested on: NCI-H460
SF-295 = tested on: SF-295
OVCAR-4 = tested on: OVCAR-4
MCF7 = tested on: MCF7
M14 = tested on: M14
OVCAR-3 = tested on: OVCAR-3
OVCAR-8 = tested on: OVCAR-8
SN12C = tested on: SN12C
SF-539 = tested on: SF-539
Malme-3M = tested on: Malme-3M
UO-31 = tested on: UO-31
A549 = tested on: A549
HCT-15 = tested on: HCT-15
NCI-H522 = tested on: NCI-H522
CCRF-CEM = tested on: CCRF-CEM
MDA-MB-435 = tested on: MDA-MB-435

Row | Structure (SMILES) | GI50 (SF-268) | GI50 (UACC-257) | GI50 (MDA-MB-231) | GI50 (IGROV-1) | GI50 (NCI-H460) | GI50 (SF-295) | GI50 (OVCAR-4) | GI50 (MCF7) | GI50 (M14) | GI50 (OVCAR-3) | GI50 (OVCAR-8) | GI50 (SN12C) | GI50 (SF-539) | GI50 (Malme-3M) | GI50 (UO-31) | GI50 (A549) | GI50 (HCT-15) [µM] | GI50 (NCI-H522) | GI50 (CCRF-CEM) | GI50 (MDA-MB-435)
1 | CC(=O)C1=C(N=[N+]=[N-])c2cccc3cccc(c23)C1=O | 25.2 µM (inactive) | 17.9 µM (inactive) | 11.5 µM (inactive) | 16.1 µM (inactive) | 21 µM (inactive) | 22.5 µM (inactive) | 23.6 µM (inactive) | 10.6 µM (inactive) | 12.7 µM (inactive) | 12.2 µM (inactive) | 23.6 µM (inactive) | 16.1 µM (inactive) | 13.3 µM (inactive) | 17.3 µM (inactive) | 14.6 µM (inactive) | 24.5 µM (inactive) | 15.7 | 14.2 µM (inactive) | 5.73 µM (inactive) | 20.6 µM (inactive)
2 | CN(/N=C/C=N/N(C)C1=NCCN1)C1=NCCN1 | > 100 µM (inactive) | > 100 µM (inactive) | > 100 µM (inactive) | > 100 µM (inactive) | > 100 µM (inactive) | > 100 µM (inactive) | > 100 µM (inactive) | > 100 µM (inactive) | > 100 µM (inactive) | > 100 µM (inactive) | > 100 µM (inactive) | > 100 µM (inactive) | > 100 µM (inactive) | > 100 µM (inactive) | > 100 µM (inactive) | > 100 µM (inactive) | > 100 | > 100 µM (inactive) | > 100 µM (inactive) | > 100 µM (inactive)
3 | O=c1c2ccccc2nc(Nc2cccc(Cl)c2)n1/N=C/C=C/c1ccccc1 | 53 µM (inactive) | 85.9 µM (inactive) | 71 µM (inactive) | > 100 µM (inactive) | 48.2 µM (inactive) | 60 µM (inactive) | 45.5 µM (inactive) | 26.3 µM (inactive) | > 100 µM (inactive) | 73.1 µM (inactive) | 39.2 µM (inactive) | 52.6 µM (inactive) | 35.7 µM (inactive) | > 100 µM (inactive) | > 100 µM (inactive) | 75.3 µM (inactive) | > 100 | 50.5 µM (inactive) | > 100 µM (inactive) | > 100 µM (inactive)
4 | OCCN(CCO)c1ccc2c(C(F)(F)F)cc(C(F)(F)F)nc2n1 | > 100 µM (inactive) | > 100 µM (inactive) | > 100 µM (inactive) | > 100 µM (inactive) | > 100 µM (inactive) | > 100 µM (inactive) | > 100 µM (inactive) | > 100 µM (inactive) | > 100 µM (inactive) | > 100 µM (inactive) | > 77.6 µM (inactive) | > 100 µM (inactive) | > 100 µM (inactive) | > 100 µM (inactive) | > 100 µM (inactive) | > 77.3 µM (inactive) | > 86.5 | > 100 µM (inactive) | > 100 µM (inactive) | > 100 µM (inactive)
5 | CC(C)(C)OC(=O)NC1CC2(C=C(Br)C(=O)C(Br)=C2)OC1=O (stereo not given) | 17.4 µM (inactive) | 5.4 µM (inactive) | 17.7 µM (inactive) | 16.4 µM (inactive) | 18.4 µM (inactive) | 16.4 µM (inactive) | 9.84 µM (inactive) | 11.6 µM (inactive) | 7.14 µM (inactive) | 10.4 µM (inactive) | 7.14 µM (inactive) | 7.33 µM (inactive) | 18.7 µM (inactive) | 6.24 µM (inactive) | 5.27 µM (inactive) | 20.2 µM (inactive) | 7.13 | 1.73 µM (inactive) | 0.165 µM (active) | 7.71 µM (inactive)
6 | COc1cc2ncnc(Nc3cccc(Cl)c3)c2cc1OC [TYRPHOSTIN AG-1478] | 4.67 µM (inactive) | 7.57 µM (inactive) | 14.2 µM (inactive) | 0.0736 µM (active) | 13.4 µM (inactive) | 9.48 µM (inactive) | 18.1 µM (inactive) | 21.5 µM (inactive) | 7.16 µM (inactive) | 3.05 µM (inactive) | 3.66 µM (inactive) | 8.91 µM (inactive) | 15.9 µM (inactive) | 6.28 µM (inactive) | 4.47 µM (inactive) | 10.6 µM (inactive) | 9.25 | 0.356 µM (active) | 3.82 µM (inactive) | 11.9 µM (inactive)
